Values of other authors, collected in patent US20100063116A1 (priority 2006, published 2010).
Where two headings read alike, the source gives them in different places.

What was measured:
[1] = test system: dopamine receptors in the striatum and the substantia nigra; settings: electrophysiologic studies in animals
[2] = test system: D2 subfamily of dopamine receptors; settings: in vitro
[3] = test system: patients with early Parkinson's disease
[4] = test system: patients with early Parkinson's disease; remark: listed apart in the source
[5] = end of 6-month maintenance, titrated up to 4.5 mg/day in three divided doses

In the case of `CCCN[C@@H]1CCc2nc(N)sc2C1` [Pramipexole, pramipexole], the “effect on striatal neuronal firing rates” value [1] is listed as “influences striatal neuronal firing rates”, the “bound to plasma proteins” value (plasma proteins) is listed as “about 15%” and the volume of distribution (CV=20%) is listed as “about 500 L”. For the same compound, the renal clearance (CV=25%) was “approximately 400 mL/min”, the “dose recovered in urine” value (almost all as unchanged drug) was 90% and the “clearance in dialysis patients” value (dialysis patients) was “extremely low”. The terminal half-life (elderly volunteers) was “about 12 hours”, the “metabolites in plasma or urine” value (human, in vivo) was “no metabolites have been identified” and the “pharmacokinetics in early versus advanced Parkinson's disease patients” value (human, in vivo) was “comparable”. The “decrease of clearance compared with healthy volunteers” value (moderate renal impairment (creatinine clearance approximately 40 mL/min)) was “about 60%”, the “time to steady-state concentrations” value (of dosing) was ≤ 2 days and the absolute bioavailability (oral) was “greater than 90%”. For the same compound, the linearity of pharmacokinetics (over the clinical dosage range) was “linear pharmacokinetics”, the “decrease of clearance compared with healthy volunteers” value (severe renal impairment (creatinine clearance approximately 20 mL/min)) was “about 75%” and the “effect of food on the extent of absorption” value (taken with food) was “does not affect”. For the same compound, the terminal half-life (young healthy volunteers) was “about 8 hours”, the “intrinsic activity at the D2 subfamily of dopamine receptors” value [2] was “full intrinsic activity” and the “mean improvement from baseline on the UPDRS part II (ADL) total score” value [3, 5] was 1.9. The “mean improvement from baseline on the UPDRS part III total score” value [3, 5] was 5.0, the “beginning of statistically significant difference versus placebo, UPDRS part II” value ([3]; maximum dose 0.75 mg/day) was 2 week and the “beginning of statistically significant difference versus placebo, UPDRS part III” value ([3]; maximum dose 1.5 mg/day) was 3 week. The dose-response relationship ([4]; 1.5 mg, 3.0 mg, 4.5 mg, or 6.0 mg per day) was “No dose-response relationship was demonstrated”, the “mean improvement from baseline on the UPDRS part III total score” value ([4]; end of 4-week maintenance, fixed doses 1.5-6.0 mg per day) was 4.2 and the “mean improvement from baseline on the UPDRS part II total score” value ([4]; end of 4-week maintenance, fixed doses 1.5-6.0 mg per day, regardless of dose group) was 1.8. The “benefit of 3 mg, 4.5 mg and 6 mg per day beyond 1.5 mg/day” value ([4]; fixed-dose study in early Parkinson's disease patients) was “not shown to provide any significant benefit”.
